Data from US6525059B1, “Substituted pyrazoles as p38 kinase inhibitors” (G. D. Searle & Company, priority 1998, dated 2003).
Several values for one entry are separate records, joined by “and”; a condition that tells them apart may be missing. Equal values may be shown once. Where a name gives a salt, the structure may show the parent alone. Read-outs that look alike come from different tables or passages of the source.

Key:
human p38 kinase alpha = molecular target: T1, human p38 kinase alpha (Homo sapiens, UniProt Q16539); test: p38 kinase in vitro assay, phosphorylation of biotinylated PHAS-I with gamma 32P-ATP; type: biochemical
T1 construct: The coding region of the human p38a cDNA was obtained by PCR-amplification from RNA isolated from the human monocyte cell line THP.1; GST (N); made in house; host or cells: E. coli DH10B
Summary of the method: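 Radiometric filter-capture read-out: streptavidin plates trap biotin-PHAS-I labelled by activated (MKK6) human p38α from γ-32P-ATP. Buffer 25 mM HEPES pH 7.5, 10 mM magnesium acetate, 50 μM cold ATP; reactions 1 h or overnight at 30 °C; inhibitors 10-fold dilutions 100 to 0.001 μM, triplicates, 1% DMSO.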

TNF-α [1] = test: Rat assay: LPS-challenged rats, serum TNF-α by ELISA; type: in vivo; details: Rattus norvegicus, po; for inhibition in vivo at 5 mg/kg: 5 mpk oral gavage, 4 h before LPS challenge, read-out: Rat LPS Model % Inhibition @ dose @ predose time
Method: The efficacy of the novel compounds in blocking the production of TNF also was evaluated using a model based on rats challenged with LPS. Male Harlen Lewis rats [Sprague Dawley Co.] were used in this model. Each rat weighed approximately 300 g and was fasted overnight prior to testing. Compounds administration was typically by oral gavage (although intraperitoneal, subcutaneous and intravenous administration were also used in a few instances) 1 to 24 hours prior to the LPS challenge. Rats were administered 30 μg/kg LPS [salmonella typhosa, Sigma Co.] intravenously via the tail vein. Blood was collected via heart puncture 1 hour after the LPS challenge. Serum samples were stored at −20° C. until quantitative analysis of TNF-α by Enzyme Linked-Immuno-Sorbent Assay (“ELISA”) [Biosource]. Additional details of the assay are set forth in Perretti, M., et al., Br. J. Pharmacol. (1993), 110, 868-874, which is incorporated by reference in this application.
In vivo assessment of the ability of the compounds to inhibit LPS-stimulated TNF release in the rat is shown in the column identified as:
wherein in the dose is milligram per kilogram (mpk) administered by oral gavage and the predose time indicates the number of hours before LPS challenge when the compound is administered.

TNF-α [2] = test: LPS stimulation of TNF production by U937 cells; type: cell-based, human; details: Homo sapiens; for inhibition at 1 µM: U-937, @ 1.0 uM, read-out: U937 Cell % inhib @ conc.
Summary of the method: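 PMA-differentiated human U937 cells (20 ng/ml PMA, 24 h, then 24-48 h rest) at 2 million cells/ml, 0.1% DMSO final, stimulated with E. coli LPS (100 ng/ml final) for 4 h at 37° C. TNF-α in medium measured by ELISA; IC50 in μM.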

[3] = molecular target: T2, human GST-p38 kinase alpha (Homo sapiens, UniProt Q16539); test: p38 kinase in vitro assay, second format, phosphorylation of EGFRP with 33P-ATP; type: biochemical
T2 construct: The coding region of the human p38a cDNA was obtained by PCR-amplification from RNA isolated from the human monocyte cell line THP.1; made in house; host or cells: E. coli DH10B
Method: A second assay format was also employed that is based on p38 kinase alpha induced phosphorylation of EGFRP (epidermal growth factor receptor peptide, a 21 mer) in the presence of ^33P-ATP. Compounds were tested in 10 fold serial dilutions over the range of 100 μM to 0.001 μM in 10% DMSO. Each concentration of inhibitor was tested in triplicate. Compounds were evaluated in 50 μl reaction volumes in the presence of 25 mM Hepes pH 7.5, 10 mM magnesium acetate, 4% glycerol, 0.4% bovine serum albumin, 0.4 mM DTT, 50 μM unlabeled ATP, 25 μg EGFRP (200 μM), and 0.05 uCi gamma ^33P-ATP. Reactions were initiated by addition of 0.09 μg of activated, purified human GST-p38 kinase alpha. Activation was carried out using GST-MKK6 (5:1, p38: MKK6) for one hour at 30° C. in the presence of 50 μM ATP. Following incubation for 60 minutes at room temperature, the reaction was stopped by addition of 150 μl of AG 1×8 resin in 900 mM sodium formate buffer, pH 3.0 (1 volume resin to 2 volumes buffer). The mixture was mixed three times with pipetting and the resin was allowed to settle. A total of 50 μl of clarified solution head volume was transferred from the reaction wells to Microlite-2 plates. 150 μl of Microscint 40 was then added to each well of the Microlite plate, and the plate was sealed, mixed, and counted.

[4] = read-out: P38 alpha kinase IC50
[5] = -4 h, 3 mpk oral gavage, -4h before LPS, read-out: Rat LPS Model % inhib @ dose @ predose time
[6] = U-937, TNF production, LPS-stimulated human U937 cells, read-out: U937 Cell IC50
[7] = Table 9, 10% DMSO, read-out: p38α Kinase Assay IC50
[8] = Table 8, 10% DMSO, read-out: p38α Kinase Assay IC50
[9] = U-937, LPS-stimulated U937 cells, read-out: U937 IC50
[10] = p38α in vitro, EGFRP assay procedure, read-out: p38^2 IC50
[11] = p38α in vitro, PHAS-I assay procedure, read-out: p38^1 IC50
[12] = Table 10, 10% DMSO, @ 1.0 hour, read-out: p38α Kinase Assay IC50

T2 sequence (Q16539 whole entry): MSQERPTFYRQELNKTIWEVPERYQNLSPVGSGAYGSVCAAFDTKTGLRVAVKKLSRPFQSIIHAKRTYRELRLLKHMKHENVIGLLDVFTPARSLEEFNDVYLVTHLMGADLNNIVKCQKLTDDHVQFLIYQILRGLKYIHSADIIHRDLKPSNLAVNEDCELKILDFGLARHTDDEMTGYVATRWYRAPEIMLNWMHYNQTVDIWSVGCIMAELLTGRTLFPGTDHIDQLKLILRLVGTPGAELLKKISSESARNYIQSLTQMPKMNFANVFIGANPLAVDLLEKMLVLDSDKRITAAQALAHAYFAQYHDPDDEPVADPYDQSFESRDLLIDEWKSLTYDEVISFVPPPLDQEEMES
T1 sequence (Q16539 whole entry): as above

SMILES: C[C@@H](NS(=O)(=O)Cc1ccccc1)c1[nH]nc(-c2ccc(F)cc2)c1-c1ccncc1 [Example B-0389]
- IC50 (human p38 kinase alpha; [4]): 10 nM
- inhibition in vivo at 3 mg/kg (TNF-α [1]; [5]): 62%
- IC50 (TNF-α [2]; [6]): 50 nM

SMILES: Fc1ccc(-c2n[nH]cc2-c2ccnc(NCCN3CCCCC3)c2)cc1 [Example A-375, 4-[3-(4-fluorophenyl)-1H-pyrazol-4-yl]-N-[2-(1-piperidinyl)ethyl]-2-pyridinamine]
- inhibition in vivo at 20 mg/kg (TNF-α [1]; Table 9, dose 20 mg/kg): 43%
- IC50 [3, 7]: 2300 nM

SMILES: C#CCNc1nccc(-c2cn[nH]c2-c2ccc(F)cc2)n1 [Example A-324, 4-[3-(4-fluorophenyl)-1H-pyazol-4-yl]-N-2-propynyl-2-pyrimidinamine]
- inhibition in vivo at 3 mg/kg (TNF-α [1]; Table 8, dose 3.0 mg/kg, read-out: Rat LPS Assay % Inhibition): 44%
- IC50 [3, 8]: 80 nM

SMILES: Clc1ccc(-c2n[nH]cc2-c2ccnc(NCc3ccccn3)c2)cc1 [Example A-247, N-[4-[3-(4-chlorophenyl)-1H-pyrazol-4-yl]-2-pyridinyl]-2-pyridinemethanamine]
- IC50 (TNF-α [2]; [9]): 166 nM
- IC50 [3, 10]: < 10 nM

SMILES: COc1ccc(CNc2cc(-c3c[nH]nc3-c3ccc(Cl)cc3)ccn2)cc1 [Example A-246, 4-[3-(4-chlorophenyl)-1H-pyrazol-4-yl]-N-[(4-methoxy-phenyl)methyl]-2-pyridinamine]
- IC50 (human p38 kinase alpha; [11]): 403 nM
- IC50 (TNF-α [2]; [9]): 495 nM
- IC50 [3, 10]: 592 nM

SMILES: Fc1ccc(-c2n[nH]cc2-c2ccnc(/C=C/c3ccccc3)c2)cc1 [Example A-244, (E)-4-[3-(4-fluorophenyl)-1H-pyrazol-4-yl]-2-(2-phenylethenyl)pyridine]
- IC50 [3, 10]: 99 nM

SMILES: Clc1ccc(-c2n[nH]c(SC3CCNCC3)c2-c2ccncc2)cc1 [A-459 (salt)]
- IC50 [3, 12]: 100 nM

SMILES: Cn1cc(-c2ccnc(F)c2)c(-c2ccc(F)cc2)n1 [Example A-256, 2-fluoro-4-[3-(4-fluorophenyl)-1-methyl-1H-pyrazol-4-yl]pyridine]
- IC50 (TNF-α [2]; [9]): 456 nM
- IC50 [3, 10]: 813 nM

SMILES: Ic1ccc(-c2n[nH]cc2-c2ccncc2)cc1 [Example A-250, 4-[3-(4-iodophenyl)-1H-pyrazol-4-yl]pyridine]
- IC50 [3, 10]: 2870 nM

SMILES: C[C@@H](NS(=O)(=O)c1ccc(C#N)cc1)c1[nH]nc(-c2ccc(F)cc2)c1-c1ccncc1 [Example B-0479]
- IC50 (human p38 kinase alpha; [4]): 31 nM
- inhibition in vivo at 3 mg/kg (TNF-α [1]; [5]): 15%
- inhibition at 1 µM (TNF-α [2]): 90%

SMILES: C[C@@H](NS(=O)(=O)c1ccc(-c2ccccc2)cc1)c1[nH]nc(-c2ccc(F)cc2)c1-c1ccncc1 [Example B-0481]
- IC50 (human p38 kinase alpha; [4]): 14 nM
- inhibition in vivo at 3 mg/kg (TNF-α [1]; [5]): 56%
- inhibition at 1 µM (TNF-α [2]): 95%

SMILES: O=C(c1n[nH]c(-c2ccc(F)cc2)c1-c1ccncc1)N1CCNCC1 [A-314, Step 1, 1-[[5-(4-fluorophenyl)-4-(4-pyridinyl)-1H-pyrazol-3-yl]carbonyl]piperazine, monhydrate]
- IC50 [3, 8]: 370 nM

SMILES: Fc1ccc(-c2n[nH]cc2-c2ccnc(NCc3cccc(F)c3)c2)cc1 [Example A-254, N-[(3-fluorophenyl)methyl]-4-[3-(4-fluorophenyl)-1H-pyrazol-4-yl]-2-pyridinamine]
- IC50 (TNF-α [2]; [9]): 141 nM
- IC50 [3, 10]: 81 nM

SMILES: O=C(O)C(Cc1cnc[nH]1)Sc1[nH]nc(-c2ccc(Cl)cc2)c1-c1ccncc1 (centres unmarked) [Example A-471]
- IC50 [3, 12]: 4920 nM

SMILES: O=C(C(=C(SCC1OCCO1)SCC1OCCO1)c1ccncc1)c1ccc(F)cc1 [Example A-449]
- IC50 [3, 12]: 59000 nM

SMILES: COc1ccccc1N1CCN(c2n[nH]c(-c3ccc(Cl)cc3)c2-c2ccncc2)CC1 [Example A-336, 1-[5-(4-chlorophenyl)-4-(4-pyridinyl)-1H-pyrazol-3-yl]-4-(2-methoxyphenyl)piperazine]
- IC50 [3, 8]: 1160 nM

SMILES: N[C@H]1CC[C@@H](c2[nH]nc(-c3cccc(Cl)c3)c2-c2ccncc2)CC1 [Example C-105, 5-cis-(4-AMINOCYCLOHEXYL)-4-(4-PYRIDYL)-3-(3-CHLOROPHENYL)PYRAZOLE]
- IC50 (human p38 kinase alpha; [4]): 33 nM
- inhibition in vivo at 5 mg/kg (TNF-α [1]): 46%

SMILES: Sc1[nH]nc(-c2ccc(Cl)cc2)c1-c1ccncc1 [Example A-455]
- IC50 [3, 12]: 12900 nM

SMILES: CCOC(=O)N[C@H](C)c1[nH]nc(-c2ccc(F)cc2)c1-c1ccncc1 [Example B-0426]
- IC50 (human p38 kinase alpha; [4]): 55 nM
- inhibition in vivo at 3 mg/kg (TNF-α [1]; [5]): 41%
- IC50 (TNF-α [2]; [6]): 740 nM

SMILES: C[C@@H](NS(=O)(=O)c1ccc(F)c(Cl)c1)c1[nH]nc(-c2ccc(F)cc2)c1-c1ccncc1 [Example B-0466]
- inhibition in vivo at 3 mg/kg (TNF-α [1]; [5]): 0%
- inhibition at 1 µM (TNF-α [2]): 98%

SMILES: Cc1cccc(-c2nn(C)cc2-c2ccnc(C)c2)c1 [Example A-235, 2-methyl-4-[1-methyl-3 (or 5)-(3-methylphenyl)-1H-pyrazol-4-yl]pyridine]
- IC50 [3, 10]: 104 nM

SMILES: Cc1cccc(C(=O)Cc2ccncc2)c1 [A-389, Step 1, 1-tolyl-2-(4-pyridyl)ethanone]
- IC50 [3, 12]: 1720 nM

SMILES: CN(C)CC(=O)N1CCC(c2[nH]nc(-c3ccc(Cl)cc3)c2-c2ccncc2)CC1 [Example C-122]
- IC50 (human p38 kinase alpha; [4]): 25 nM
- inhibition in vivo at 5 mg/kg (TNF-α [1]): 55%

SMILES: Cn1cc(-c2ccncc2)c(-c2cccc(C(F)(F)F)c2)n1 [Example A-238, 4-[1-methyl-3-[3-(trifluoromethyl)phenyl]-1H-pyrazol-4-yl]pyridine]
- IC50 (TNF-α [2]; [9]): 402 nM
- IC50 [3, 10]: 177 nM

SMILES: Fc1cc(-c2c[nH]nc2-c2ccc(F)c(F)c2)ccn1 [Example A-257, 4-[3-(3,4-difluorophenyl)-1H-pyrazol-4-yl]-2-fluoropyridine]
- IC50 (human p38 kinase alpha; [11]): 1080 nM
- IC50 (TNF-α [2]; [9]): 517 nM
- IC50 [3, 10]: < 10 nM

SMILES: C=CCn1cc(-c2ccncc2)c(-c2ccc(F)cc2)n1 [Example A-385, 4-[3-(4-fluorophenyl)-1-(2-propenyl)-1H-pyrazol-4-yl]pyridine, monohydrochloride]
- IC50 [3, 7]: 180 nM and 1250 nM

SMILES: C[C@@H](NS(=O)(=O)c1cccc(Br)c1)c1[nH]nc(-c2ccc(F)cc2)c1-c1ccncc1 [Example B-0455]
- inhibition in vivo at 3 mg/kg (TNF-α [1]; [5]): 36%
- inhibition at 1 µM (TNF-α [2]): 95%

SMILES: O=C(C(=C1SCS1)c1ccncc1)c1ccc(OC(F)(F)F)cc1 [Example A-395]
- IC50 [3, 12]: > 100000 nM

SMILES: CN1CCC(c2[nH]nc(-c3ccc(Cl)cc3)c2-c2ccncn2)CC1 [Example C-137]
- IC50 (human p38 kinase alpha; [4]): 51 nM
- inhibition in vivo at 5 mg/kg (TNF-α [1]): 58%

SMILES: O=C(O)CSc1[nH]nc(-c2ccc(Cl)cc2)c1-c1ccncc1 [Example A-461]
- IC50 [3, 12]: 30600 nM
